Earlier results in patent publication US20060105962A1, “TONIC TO MAINTAIN INTESTINAL FLORA” (priority 2004, published 2006).

Tested on: rats
Settings: exposure over a thirteen week period, up to 100% safety

Compound: O=Cc1ccco1 [furfural compounds, furfural]
- exposure to furfural compounds demonstrated as up to 100% safe: 53.0 mg/kg body weight
